This note sets out measurements from patent publication US11739122B2, “Glycopeptide antibiotic compounds, methods for producing the same, and uses thereof” (Academia Sinica, priority 2019, dated 2023).

Converted amounts (≈) assume the structure as drawn. “And” between values parts separate entries of the source, which are not always exact repeats. Equal values may be shown once. Read-outs that look alike come from different tables or passages of the source.

The target in one assay is Dbv27 (Nonomuraea gerenzanensis, UniProt Q7WZ64). Briefly: ITC binding affinity. Particulars: ITC versus Dbv27. As to the method: Isothermal Titration Calormetry (ITC) Analysis
A stock solution (50 mM) was prepared by dissolving r6,GlcNAc pseudoaglycone (9) in 50% DMSO. The 1 mM protein solutions of Orf2*, Orf2*T and Dbv27 were prepared in a 50 mM HEPES buffer solution at pH 8.0. The solution (50 mM HEPES, pH8.0 and 10% DMSO) that contained compound 9 (1 mM) or S-adenosylmethionine (SAM) (1 mM) in a 40 μL injection syringe was titrated into the Orf2*, Orf2*T or Dbv27 (0.1 mM) protein solution, which was placed in the sample cell of a 200 μL volume. Each titration consisted of 16 injections of a 2 μL4 s^−1 duration in an interval of 150 seconds. Data analysis was performed by software.

A further assay has as its system A. baumannii ATCC 19606. The experiment in a line: MIC, broth microdilution. It counts as cell-based, Acinetobacter baumannii. Particulars: Acinetobacter baumannii. As to the method: (§1) Determination of Minimal Inhibitory Concentration (MIC) for Vancomycin, Teicoplanin and Tei-Analogs Versus Selected Strains
(§2) MICs were determined by the broth microdilution method. Specifically, 12 Colonies of the test strain were picked up from 18-24 hour agar cultures and freshly inoculated into broth mediums until reaching the turbidity of a 0.5 McFarland standard. The broth culture was adjusted with broth medium to approximately 1×10^8 CFUmL^−1. […] The plates were incubated in 37° C. for 18-24 hours and monitored for the wells of the positive control, where cells grew, and the wells of the negative control, where wells should not grow. The MIC value was determined for the concentration of a test compound, at which there was no visible growth in the well.
Background: In broth dilution the organism is exposed to a series of concentrations in liquid medium.

In another assay the test system is MRSA ATCC 700787. The experiment in a line: Thin-section TEM, cell wall morphology. It counts as cell-based, Staphylococcus aureus. As to the method:
Thin-Section Transmission Electron Microscopy (TEM)
An overnight cultured MRSA ATCC 700787, VRE ATCC 700221 or A. baumannii ATCC 19606 was individually sub-cultured into a fresh medium. Bacteria at the exponential phase were treated with a given test compound at a concentration of 4×MIC for 1-4 hour at 37° C. and followed by wash and resuspension in PBS. Bacteria cells for the TEM analysis were prepared as follows: Cells were fixed with 2.5% glutaraldehyde for 30 minutes. After the fixation, cells were washed twice with PBS and fixed with 1% osmium tetraoxide for another 30 minutes. All the buffer was removed with distilled water. The cells were then stained with 1% uranyl acetate and dehydrated with a graded ethanol solution. Cells were embedded in resin. Finally, each sample was cut into thin slices of approximately 90 nm with a glass knife and stained with uranyl acetate. The images of bacterial morphological were recorded.
The cell wall/membrane apparently is the targets, while the extent of damage depends on what compound imposes on the strain. […] Cell wall thickening has been a common phenotype in clinical MRSA isolates, which may well be a phenotypic determinant for VRSA. The systemic cell-wall damage may account for the cell-wall biosynthesis crippled all over the cell surface in cell-wall thickening strains, thus leading cells to lysis as a result of the osmotic pressure of cytoplasm.

A further assay concerns VRE ATCC 700425 (vanC). The experiment in a line: MIC, broth microdilution. It counts as cell-based, enterococci. Particulars: Enterococcus. As to the method: as §1, §2
A further assay deals with VRE ATCC 700221 (vanA). The experiment in a line: MIC, broth microdilution. It counts as cell-based, enterococci. Particulars: Enterococcus. As to the method:
as §1, §2

For another assay, the system named is VRE ATCC 700802 (vanB). Briefly: MIC, broth microdilution. It counts as cell-based, enterococci. Particulars: Enterococcus. How it is done:
as §1, §2

A further assay has as its system MRSA ATCC 43300. Briefly: MIC, broth microdilution. It counts as cell-based, Staphylococcus aureus. Particulars: Staphylococcus aureus. As to the method:
as §1, §2

A further assay deals with S. aureus ATCC 29213. The experiment in a line: MIC, broth microdilution. It counts as cell-based, Staphylococcus aureus. Particulars: Staphylococcus aureus, ATCC29213. How it is done:
as §1, §2

A further assay has as its system MRSA ATCC BAA-38. Briefly: MIC, broth microdilution. It counts as cell-based, Staphylococcus aureus. Particulars: Staphylococcus aureus. As to the method: as §1, §2
The next assay relates to MRSA ATCC 700789 VRSA. Briefly: MIC, broth microdilution. Particulars: Staphylococcus aureus. It counts as cell-based, Staphylococcus aureus. As to the method: as §1, §2
For a further assay, the system named is MRSA ATCC BAA-44. The experiment in a line: MIC, broth microdilution. It counts as cell-based, Staphylococcus aureus. Particulars: Staphylococcus aureus. How it is done:
as §1, §2

For a further assay, the system named is MRSA ATCC 700698 hVISA. Briefly: MIC, broth microdilution. It counts as cell-based, Staphylococcus aureus. Particulars: Staphylococcus aureus. How it is done: as §1, §2
For the next assay, the system named is MRSA ATCC 700787 VRSA. The experiment in a line: MIC, broth microdilution. It counts as cell-based, Staphylococcus aureus. Particulars: Staphylococcus aureus. As to the method:
as §1, §2

Another assay deals with MRSA ATCC BAA-39. The experiment in a line: MIC, broth microdilution. It counts as cell-based, Staphylococcus aureus. Particulars: Staphylococcus aureus. How it is done: as §1, §2
The test system of a further assay is E. faecalis ATCC 29302. The experiment in a line: MIC, broth microdilution. It counts as cell-based. Particulars: Enterococcus faecalis, ATCC29302. As to the method: as §1, §2

Dbv27, sequence (Q7WZ64 entry or part of it): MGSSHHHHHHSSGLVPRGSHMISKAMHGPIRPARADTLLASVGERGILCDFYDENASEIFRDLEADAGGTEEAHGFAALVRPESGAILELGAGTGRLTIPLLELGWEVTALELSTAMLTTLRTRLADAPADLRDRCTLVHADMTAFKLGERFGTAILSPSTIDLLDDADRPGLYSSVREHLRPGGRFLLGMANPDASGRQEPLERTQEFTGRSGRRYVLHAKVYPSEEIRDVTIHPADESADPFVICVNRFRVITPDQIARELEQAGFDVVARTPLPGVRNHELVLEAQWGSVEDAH

In the case of `C[S+](CC[C@H](N)C(=O)[O-])C[C@H]1O[C@@H](n2cnc3c(N)ncnc32)[C@H](O)[C@@H]1O` (stereo partly shown) [SAM, S-adenosylmethionine, reference compound], binding at Dbv27 was put at a Kd of 10 µM. In other words, the double-digit micromolar range.

For the molecule `CN[C@H](CC(C)C)C(=O)N[C@H]1C(=O)N[C@@H](CC(N)=O)C(=O)N[C@H]2C(=O)N[C@H]3C(=O)N[C@H](C(=O)N[C@H](C(=O)O)c4cc(O)cc(O)c4-c4cc3ccc4O)[C@H](O)c3ccc(c(Cl)c3)Oc3cc2cc(c3O[C@@H]2O[C@H](CO)[C@@H](O)[C@H](O)[C@H]2O[C@H]2C[C@](C)(N)[C@H](O)[C@H](C)O2)Oc2ccc(cc2Cl)[C@H]1O` [Compound 2, vancomycin, reference compound], the MIC against A. baumannii ATCC 19606 (ATCC19606) is 200 µM and 297 µg/mL; with A. baumannii ATCC 19606 (ATCC19606, read-out: MIC on AB), over 190 µg/mL; against VRE ATCC 700425 (vanC), 16 µg/mL (≈ 11 µM); in the assay with VRE ATCC 700221 (vanA) it was over 128 µg/mL; in the assay with VRE ATCC 700802 (vanB), 64 µg/mL (≈ 44.2 µM); against MRSA ATCC 43300 it was 1 µg/mL (≈ 0.69 µM). Moreover, the MIC against S. aureus ATCC 29213 was found to be 1 µg/mL (≈ 0.69 µM); in the assay on MRSA ATCC BAA-38, 1 µg/mL (≈ 0.69 µM); against MRSA ATCC 700789 VRSA, 16 µg/mL (≈ 11 µM); against MRSA ATCC BAA-44 it was 2 µg/mL (≈ 1.38 µM); against MRSA ATCC 700698 hVISA, 4 µg/mL (≈ 2.76 µM); against MRSA ATCC 700787 VRSA it was 16 µg/mL (≈ 11 µM). Moreover, the MIC is 1 µg/mL (≈ 0.69 µM) against MRSA ATCC BAA-39 and 2 µg/mL (≈ 1.38 µM) in the assay with E. faecalis ATCC 29302. Besides, in the assay on MRSA ATCC 700787, the “cell wall morphology by TEM” value is reported as “floppy”.

The term Kd denotes a measure of binding affinity in units of concentration. A lower Kd goes with a tighter complex. The MIC is the smallest concentration in the dilution series that meets the test's criterion for growth inhibition.
